Assay results: PubChem BioAssay (NCI)
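Protocol summary: plate cells (96-well), add compound at 5 concentrations, incubate 48 h, interpolate endpoints linearly. At the TGI there is no net growth.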

Key:
Test in all cases: NCI-60 cell line screen, 48 h
[1] = system: SW-620 colon
[2] = system: MDA-N
[3] = system: SNB-19 CNS
[4] = system: OVCAR-8 ovarian
[5] = system: HOP-62 NSCLC
[6] = system: MDA-MB-231 breast
[7] = system: SNB-75 CNS
[8] = system: HCT-116 colon
[9] = system: UO-31 renal
[10] = system: BT-549 breast
[11] = system: A549 NSCLC

Row | Structure (SMILES) | TGI [1] | TGI [2] | TGI [3] | TGI [4] | TGI [5] | TGI [6] | TGI [7] | TGI [8] | TGI [9] | TGI [10] | TGI [11]
1 | CC1(C)[C@@H](Cn2cnc3c(N)ncnc32)CC[C@@]1(C)CO | > 100 µM | > 100 µM | > 100 µM | > 100 µM | > 100 µM | > 100 µM | > 100 µM | > 100 µM | > 100 µM | > 100 µM | > 100 µM
2 | COc1cc(OC)c2c(O)c3c(cc2c1)CC(C)(C)CC3=O | > 100 µM | > 100 µM | > 100 µM | > 100 µM | > 100 µM | > 100 µM | > 100 µM | > 100 µM | > 100 µM | > 100 µM | > 100 µM
3 | CN(C)c1nc(NC23CC4CC(CC(C4)C2)C3)nc(N(C)C)n1 | > 56.2 µM | > 45.9 µM | > 40.1 µM | > 100 µM | > 90.4 µM | > 57 µM | > 55.2 µM | > 57.1 µM | > 77.2 µM | > 100 µM | > 39.4 µM
4 | COC1=C(N=[N+]=[N-])C(=O)c2ncccc2C1=O | 4.24 µM | 3.69 µM | 30.9 µM | 7.56 µM | 29.4 µM | 25 µM | 26 µM | 6.57 µM | 27.6 µM | 23 µM | 32.1 µM
5 | NC(=Nc1ccc(O)cc1)S(=O)(=O)O | > 100 µM | > 100 µM | > 100 µM | > 100 µM | > 100 µM | > 100 µM | > 100 µM | > 100 µM | > 100 µM | > 100 µM | > 100 µM
6 | Cc1ccc(S(=O)(=O)/N=C(\NN)Nc2ccc(Cl)cc2)cc1 | > 100 µM | > 100 µM | > 100 µM | > 100 µM | > 100 µM | > 100 µM | > 100 µM | > 100 µM | > 100 µM | > 100 µM | > 100 µM
7 | NC(=O)c1nnc2cc(F)ccc2c1N | > 100 µM | > 100 µM | > 100 µM | > 100 µM | > 100 µM | > 100 µM | > 100 µM | > 100 µM | > 100 µM | > 100 µM | > 100 µM
8 | CN(C)c1ccc(/C=C2\N=C(NN)NC2=O)cc1 | > 100 µM | > 100 µM | > 100 µM | > 100 µM | > 100 µM | > 100 µM | > 100 µM | > 100 µM | > 100 µM | > 100 µM | > 100 µM
9 | COC(=O)c1cc(NC(=O)c2cc(NC(=O)c3cc([N+](=O)[O-])cn3C)cn2C)cn1C | > 100 µM | > 100 µM | > 100 µM | > 100 µM | > 100 µM | > 100 µM | > 100 µM | > 100 µM | > 100 µM | > 100 µM | > 100 µM
10 | NNc1nc2ccccc2c(=O)n1NC(=O)C(=O)Nc1cccc(C(F)(F)F)c1 | > 100 µM | > 100 µM | > 100 µM | > 100 µM | > 100 µM | > 100 µM | > 100 µM | > 100 µM | > 100 µM | > 100 µM | > 100 µM
11 | O=C1CSC(/C(=C\c2ccc(Cl)cc2)c2nc3ccccc3[nH]2)=N1 | 35.6 µM | 37.6 µM | 33.9 µM | 32 µM | 5.82 µM | 28.3 µM | 28.8 µM | 30.4 µM | 7.64 µM | 36.6 µM | 16.4 µM
12 | N#Cc1c(SCc2ccccc2)nc(-c2ccccc2)[nH]c1=S | 60 µM | 67.1 µM | > 100 µM | 76.7 µM | 40.7 µM | > 100 µM | 47.1 µM | 51.8 µM | 35 µM | 54.2 µM | > 100 µM
13 | CC(C)C(C/C=C1\CC(CO)(COC(=O)c2ccccc2)OC1=O)C(C)C (stereo not drawn) | 33.8 µM | 57.8 µM | 31.8 µM | 36 µM | 28.7 µM | 44.2 µM | 29.1 µM | 31 µM | 32.4 µM | 36.9 µM | 30.5 µM
14 | Clc1nc(Cl)c(Cl)c(Cl)n1 | 20.1 µM | 37.9 µM | 38.8 µM | 80.2 µM | 35.7 µM | 41.3 µM | 33.8 µM | 38.2 µM | 46.4 µM | 42.4 µM | 40.5 µM
15 | Clc1ccc(Cc2nc3ccc(CCN4CCN(c5ccccc5)CC4)cc3[nH]2)cc1 | > 100 µM | 30.6 µM | 41.6 µM | 36.3 µM | 30.5 µM | 27.3 µM | 38.3 µM | 24.6 µM | 20.3 µM | 34 µM | 33 µM
16 | CCCCCC(=O)N[C@@H](c1ccccc1)C(O)C(=O)OC1C[C@@]2(O)C(OC(=O)c3ccccc3)C3[C@](C)(C(=O)[C@H](O)C(=C1C)C2(C)C)C(OC1OCC(O)C(O)C1O)C[C@H]1OC[C@@]31OC(C)=O (stereo partly drawn) | > 100 µM | 1.03 µM | > 100 µM | > 100 µM | > 75.8 µM | > 100 µM | 4.52 µM | > 100 µM | > 100 µM | > 100 µM | > 100 µM
17 | ClC(Cl)(Cl)C1=N[C@H]2[C@H](Br)[C@@H]3O[C@@H](c4ccccc4)[C@H](c4ccccc4)O[C@@H]3[C@H]2O1 | 44.8 µM | 38 µM | 63.9 µM | 33.3 µM | 41.3 µM | 50.1 µM | 44 µM | 39 µM | 38.5 µM | 53 µM | 49.2 µM
18 | CNc1ccc(-c2nc3cc(C)ccc3o2)cc1 | > 100 µM | > 100 µM | > 100 µM | > 100 µM | > 100 µM | > 100 µM | 33.7 µM | > 100 µM | > 100 µM | > 100 µM | > 100 µM
